In PubChem BioAssay (NCI):
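Grown in 96-well plates, cells were treated for 48 hours with each compound at five concentrations. Insufficient inhibition: endpoint recorded as highest concentration tested. Abbreviation: GI50, concentration required for 50% inhibition of growth. TGI: concentration producing complete growth inhibition.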

Tests used:
Experiment in all cases: NCI-60 cell line screen, 48 h; in the data active means GI50 below about 0.43 µM; inactive means the rest
[1] = system: COLO 205 colon
[2] = system: MDA-MB-231 breast
[3] = system: SK-MEL-28 melanoma
[4] = system: LOX IMVI melanoma
[5] = system: A549 NSCLC
[6] = system: SK-MEL-2 melanoma
[7] = system: SK-OV-3 ovarian
[8] = system: HL-60(TB) leukemia
[9] = system: SN12C renal
[10] = system: M14 melanoma
[11] = system: NCI-H522 lung
[12] = system: IGROV1 ovarian
[13] = system: ACHN renal
[14] = system: TK-10 renal
[15] = system: NCI-H226 lung
[16] = system: SR leukemia
[17] = system: BT-549 breast
[18] = system: HOP-92 NSCLC
[19] = system: A498 renal
[20] = system: RPMI-8226 leukemia
[21] = system: OVCAR-5 ovarian
[22] = system: CAKI-1 renal
[23] = system: KM12 colon
[24] = system: HCT-116 colon
[25] = system: CCRF-CEM leukemia
[26] = system: OVCAR-4 ovarian
[27] = system: UACC-62 melanoma
[28] = system: PC-3 prostate
[29] = system: SK-MEL-5 melanoma
[30] = system: OVCAR-8 ovarian
[31] = system: NCI/ADR-RES ovarian
[32] = system: HCC-2998 colon
[33] = system: SNB-75 CNS
[34] = system: SF-295 CNS
[35] = system: HCT-15 colon
[36] = system: HS 578T breast
[37] = system: SW-620 colon
[38] = system: SF-268 CNS
[39] = system: UACC-257 melanoma
[40] = system: DU-145 prostate
[41] = system: NCI-H23 lung
[42] = system: U251 CNS
[43] = system: HOP-62 NSCLC
[44] = system: SF-539 CNS
[45] = system: SNB-19 CNS
[46] = system: OVCAR-3 ovarian
[47] = system: RXF 393 renal
[48] = system: MOLT-4 leukemia
[49] = system: MCF7 breast
[50] = system: 786-0 renal
[51] = system: T-47D breast
[52] = system: NCI-H460 lung
[53] = system: UO-31 renal
[54] = system: MDA-MB-435
[55] = system: HT29 colon
[56] = system: K-562 leukemia
[57] = system: EKVX NSCLC

Cc1cccc(NC(=O)c2sc3nc4c(cc3c2N)CCCC4)c1
32.4 µM: TGI [50]
47.3 µM: TGI [29]
66.4 µM: TGI [19]
23.8 µM: TGI [34]
17.7 µM: TGI [8]
39.1 µM: TGI [26]
45.2 µM: TGI [42]
> 100 µM: TGI [1] | TGI [3] | TGI [4] | TGI [5] | TGI [9] | TGI [10] | TGI [11] | TGI [12] | TGI [13] | TGI [20] | TGI [21] | TGI [22] | TGI [23] | TGI [24] | TGI [25] | TGI [27] | TGI [28] | TGI [30] | TGI [31] | TGI [32] | TGI [35] | TGI [36] | TGI [37] | TGI [38] | TGI [39] | TGI [40] | TGI [41] | TGI [46] | TGI [48] | TGI [49] | TGI [51] | TGI [52] | TGI [53]
36.8 µM: TGI [43]
32 µM: TGI [18]
11.2 µM: TGI [16]
60.5 µM: TGI [44]
73.5 µM: TGI [15]
2 µM: TGI [54]
52.5 µM: TGI [6]
68 µM: TGI [45]
active: GI50 [54] 0.305 µM
90.6 µM: TGI [14]
52.2 µM: TGI [2]
63.9 µM: TGI [7]
18.9 µM: TGI [33]
62 µM: TGI [17]
inactive: GI50 [1] 4.96 µM | GI50 [2] 14.8 µM | GI50 [3] 9.23 µM | GI50 [4] 8.52 µM | GI50 [5] 8.33 µM | GI50 [6] 8.99 µM | GI50 [7] 12.9 µM | GI50 [8] 2.36 µM | GI50 [9] 24 µM | GI50 [10] 2 µM | GI50 [11] 16.4 µM | GI50 [12] 17.7 µM | GI50 [13] 10.5 µM | GI50 [14] 13.7 µM | GI50 [15] 9.68 µM | GI50 [16] 0.549 µM | GI50 [17] 7.56 µM | GI50 [18] 9 µM | GI50 [19] 5.87 µM | GI50 [20] 5.74 µM | GI50 [21] > 100 µM | GI50 [22] 6.7 µM | GI50 [23] 3.32 µM | GI50 [24] 2.59 µM | GI50 [25] 4.46 µM | GI50 [26] 3.22 µM | GI50 [27] 2.19 µM | GI50 [28] 16.2 µM | GI50 [29] 2.3 µM | GI50 [30] 20.9 µM | GI50 [31] 4.59 µM | GI50 [32] 45.4 µM | GI50 [33] 3.84 µM | GI50 [34] 3.51 µM | GI50 [35] 0.845 µM | GI50 [36] 9.92 µM | GI50 [37] 3.42 µM | GI50 [38] 10.7 µM | GI50 [39] > 100 µM | GI50 [40] 13.4 µM | GI50 [41] 27.8 µM | GI50 [42] 8.33 µM | GI50 [43] 4.97 µM | GI50 [44] 4.74 µM | GI50 [45] 6.92 µM | GI50 [46] 4.84 µM | GI50 [47] 4.71 µM | GI50 [48] 12 µM | GI50 [49] 1.15 µM | GI50 [50] 4.13 µM | GI50 [51] 10.2 µM | GI50 [52] 5.25 µM | GI50 [53] 25.2 µM
23.2 µM: TGI [47]

O=c1nc(Oc2c(F)c(F)c(F)c(F)c2F)ccn1C1OC(CO)C(O)C1O (configuration not stated)
> 100 µM: TGI [1] | TGI [2] | TGI [3] | TGI [4] | TGI [5] | TGI [6] | TGI [7] | TGI [9] | TGI [55] | TGI [10] | TGI [11] | TGI [12] | TGI [13] | TGI [14] | TGI [16] | TGI [17] | TGI [18] | TGI [19] | TGI [20] | TGI [21] | TGI [22] | TGI [23] | TGI [24] | TGI [25] | TGI [26] | TGI [27] | TGI [28] | TGI [29] | TGI [30] | TGI [31] | TGI [32] | TGI [33] | TGI [56] | TGI [34] | TGI [35] | TGI [36] | TGI [37] | TGI [38] | TGI [39] | TGI [40] | TGI [41] | TGI [42] | TGI [43] | TGI [44] | TGI [45] | TGI [57] | TGI [46] | TGI [47] | TGI [48] | TGI [49] | TGI [50] | TGI [51] | TGI [53] | TGI [54]
